Measured values taken from patent US12187723B2 (BRISTOL-MYERS SQUIBB COMPANY, priority 2019, dated 2025).

Experiments:
human TLR8 = molecular target: T1, human TLR8 (Homo sapiens, UniProt Q9NR97); experiment: TLR8 inhibition reporter assay (HEK-Blue SEAP); format: cell-based; details: HEK-Blue cells overexpressing human TLR8, R848 15.9 μM, 22 hour incubation
T1 construct: host or cells: HEK-Blue cells
T1 sequence (Q9NR97 27-1041): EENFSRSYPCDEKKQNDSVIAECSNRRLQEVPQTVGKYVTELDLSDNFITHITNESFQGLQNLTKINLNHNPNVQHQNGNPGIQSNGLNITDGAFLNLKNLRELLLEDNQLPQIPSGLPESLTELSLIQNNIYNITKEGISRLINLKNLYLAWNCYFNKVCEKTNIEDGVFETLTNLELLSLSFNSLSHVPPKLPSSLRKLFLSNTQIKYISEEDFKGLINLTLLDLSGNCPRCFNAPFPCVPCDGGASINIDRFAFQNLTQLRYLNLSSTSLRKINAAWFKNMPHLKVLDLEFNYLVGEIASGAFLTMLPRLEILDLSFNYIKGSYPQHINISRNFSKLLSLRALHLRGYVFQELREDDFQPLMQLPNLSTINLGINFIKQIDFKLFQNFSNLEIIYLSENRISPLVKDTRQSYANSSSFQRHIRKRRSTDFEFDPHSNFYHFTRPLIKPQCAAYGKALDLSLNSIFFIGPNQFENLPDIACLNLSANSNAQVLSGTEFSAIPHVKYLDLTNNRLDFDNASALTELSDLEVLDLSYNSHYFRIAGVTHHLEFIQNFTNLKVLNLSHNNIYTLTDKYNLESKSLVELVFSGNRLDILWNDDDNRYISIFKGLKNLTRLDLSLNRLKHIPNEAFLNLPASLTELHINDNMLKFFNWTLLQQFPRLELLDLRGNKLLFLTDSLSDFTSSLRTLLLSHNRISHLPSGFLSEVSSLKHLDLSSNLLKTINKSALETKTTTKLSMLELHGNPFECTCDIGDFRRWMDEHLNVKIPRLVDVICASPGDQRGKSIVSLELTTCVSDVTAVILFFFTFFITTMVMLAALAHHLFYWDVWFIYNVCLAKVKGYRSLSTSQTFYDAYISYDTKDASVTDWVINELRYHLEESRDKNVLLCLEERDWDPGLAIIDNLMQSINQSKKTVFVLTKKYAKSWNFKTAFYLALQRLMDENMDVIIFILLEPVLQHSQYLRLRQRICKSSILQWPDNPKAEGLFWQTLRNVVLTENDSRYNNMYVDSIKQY
Method in brief: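 Human TLR7/8/9 HEK-Blue reporter lines; dose range 0.05 nM–50 μM; 30 min RT preincubation; stimulus gardiquimod 7.5 μM / R848 15.9 μM / ODN2006 5 nM respectively; 22 h, 37 °C; SEAP detected colorimetrically.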

human TLR7 = molecular target: T2, human TLR7 (Homo sapiens, UniProt Q9NYK1); experiment: TLR7 inhibition reporter assay (HEK-Blue SEAP); format: cell-based; details: HEK-Blue cells overexpressing human TLR7, gardiquimod 7.5 μM, 22 hour incubation
T2 construct: host or cells: HEK-Blue cells
T2 sequence (Q9NYK1 27-1049): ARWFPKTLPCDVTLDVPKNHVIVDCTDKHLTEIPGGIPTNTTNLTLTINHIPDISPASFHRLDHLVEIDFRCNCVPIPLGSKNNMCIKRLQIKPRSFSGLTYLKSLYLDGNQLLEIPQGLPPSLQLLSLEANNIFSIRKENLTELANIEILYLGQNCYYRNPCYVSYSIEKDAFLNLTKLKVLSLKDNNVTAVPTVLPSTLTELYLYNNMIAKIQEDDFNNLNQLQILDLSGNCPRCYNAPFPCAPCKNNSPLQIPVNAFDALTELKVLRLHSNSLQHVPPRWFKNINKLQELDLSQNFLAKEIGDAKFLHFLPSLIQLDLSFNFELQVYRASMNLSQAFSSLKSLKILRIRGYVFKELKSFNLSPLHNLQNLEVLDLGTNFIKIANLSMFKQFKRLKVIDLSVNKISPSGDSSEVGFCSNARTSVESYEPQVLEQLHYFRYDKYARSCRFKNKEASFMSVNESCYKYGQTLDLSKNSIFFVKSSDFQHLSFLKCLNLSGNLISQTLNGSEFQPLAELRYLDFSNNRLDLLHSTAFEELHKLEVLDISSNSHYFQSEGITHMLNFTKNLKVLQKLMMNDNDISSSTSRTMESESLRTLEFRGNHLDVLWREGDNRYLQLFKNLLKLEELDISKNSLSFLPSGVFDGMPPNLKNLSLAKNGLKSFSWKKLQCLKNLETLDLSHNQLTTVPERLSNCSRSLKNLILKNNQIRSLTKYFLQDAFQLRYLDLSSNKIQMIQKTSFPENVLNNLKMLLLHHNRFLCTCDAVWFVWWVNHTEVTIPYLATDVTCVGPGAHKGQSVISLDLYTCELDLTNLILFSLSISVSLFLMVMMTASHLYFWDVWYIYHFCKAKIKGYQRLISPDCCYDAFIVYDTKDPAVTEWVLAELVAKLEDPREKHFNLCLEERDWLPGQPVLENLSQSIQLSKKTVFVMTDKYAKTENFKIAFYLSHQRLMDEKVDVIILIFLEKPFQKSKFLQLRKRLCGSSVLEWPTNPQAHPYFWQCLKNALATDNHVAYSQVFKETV
Method in brief: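 Cells (15000/well for TLR7, 20,000 for TLR8) were treated with compounds over 0.05 nM-50 μM final. After 22 h at 37° C, 5% CO2, SEAP was measured with HEK-Blue Detection reagent; percent inhibition was taken as reduction of agonist-plus-DMSO signal relative to a known inhibitor.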

CCc1cc2c(cc1-c1cc(OC)c3ncnn3c1)[nH]c(=O)n2[C@@H]1CCCN(C(=O)CN(C)C)C1 [Example 228, (R)-1-(1-(dimethylglycyl)piperidin-3-yl)-6-ethyl-5-(8-methoxy-[1,2,4]triazolo[1,5-a]pyridin-6-yl)-1,3-dihydro-2H-benzo[d]imidazol-2-one]
IC50 (human TLR8): 38.7 nM
IC50 (human TLR7): 34.9 nM

Cc1c(-c2cc3[nH]c(=O)n([C@H]4CC[C@@H](NC(C)C)CC4)c3cc2C(C)C)cn2ncnc2c1C [Example 186, 5-(7,8-dimethyl-[1,2,4]triazolo[1,5-a]pyridin-6-yl)-6-isopropyl-1-((1s,4s)-4-(isopropylamino)cyclohexyl)-1,3-dihydro-2H-benzo[d]imidazol-2-one]
IC50 (human TLR8): 0.13 nM
IC50 (human TLR7): 0.95 nM

COc1cc(-c2cc3[nH]c(=O)n(C4CCC(N5CC6(CCOCC6)C5)CC4)c3cc2C(C)C)cn2ncnc12 (single isomer, unassigned) [Example 235, 1-(4-(7-oxa-2-azaspiro[3.5]nonan-2-yl)cyclohexyl)-6-isopropyl-5-(8-methoxy-[1,2,4]triazolo[1,5-a]pyridin-6-yl)-1,3-dihydro-2H-benzo[d]imidazol-2-one]
IC50 (human TLR8): 0.39 nM
IC50 (human TLR7): 1.52 nM

CCc1cc2c(cc1-c1cc(OC)c3ncnn3c1)[nH]c(=O)n2[C@@H]1CCCN(C)C1 [Example 174, (R)-6-ethyl-5-(8-methoxy-[1,2,4]triazolo[1,5-a]pyridin-6-yl)-1-(1-methylpiperidin-3-yl)-1,3-dihydro-2H-benzo[d]imidazol-2-one]
IC50 (human TLR8): 1.39 nM
IC50 (human TLR7): 1.14 nM

CCC(CC)CN[C@H]1CC[C@@H](n2c(=O)[nH]c3cc(-c4cc(OC)c5ncnn5c4)c(C(C)C)cc32)CC1 [Example 194]
IC50 (human TLR8): 0.11 nM
IC50 (human TLR7): 2.28 nM

CCCN(CCC)[C@H]1CC[C@@H](n2c(=O)[nH]c3cc(-c4cn5ncnc5c(C)c4C)c(C(C)C)cc32)CC1 [Example 199, 5-(7,8-dimethyl-[1,2,4]triazolo[1,5-a]pyridin-6-yl)-1-((1s,4s)-4-(dipropylamino)cyclohexyl)-6-isopropyl-1,3-dihydro-2H-benzo[d]imidazol-2-one]
IC50 (human TLR8): 0.53 nM
IC50 (human TLR7): 5.03 nM

CCc1cc2c(cc1-c1cc(OC)c3ncnn3c1)[nH]c(=O)n2[C@@H]1CCCN(C2CCCOC2)C1 (stereo partly drawn) [Example 215, 6-ethyl-5-(8-methoxy-[1,2,4]triazolo[1,5-a]pyridin-6-yl)-1-((3R)-1-(tetrahydro-2H-pyran-3-yl)piperidin-3-yl)-1,3-dihydro-2H-benzo[d]imidazol-2-one]
IC50 (human TLR8): 13.7 nM
IC50 (human TLR7): 13.4 nM

CCc1cc2c(cc1-c1cc(OC)c3ncnn3c1)[nH]c(=O)n2[C@@H]1CCCN(CC2CCOCC2)C1 [Example 175, (R)-6-ethyl-5-(8-methoxy-[1,2,4]triazolo[1,5-a]pyridin-6-yl)-1-(1-((tetrahydro-2H-pyran-4-yl)methyl)piperidin-3-yl)-1,3-dihydro-2H-benzo[d]imidazol-2-one]
IC50 (human TLR8): 2.23 nM
IC50 (human TLR7): 0.83 nM

CCc1cc2c(cc1-c1cc(OC)c3ncnn3c1)[nH]c(=O)n2[C@@H]1CCCN(CC(CC)CC)C1 [Example 178, (R)-6-ethyl-1-(1-(2-ethylbutyl)piperidin-3-yl)-5-(8-methoxy-[1,2,4]triazolo[1,5-a]pyridin-6-yl)-1,3-dihydro-2H-benzo[d]imidazol-2-one]
IC50 (human TLR8): 2.62 nM
IC50 (human TLR7): 0.81 nM

Cc1c(-c2cc3[nH]c(=O)n([C@H]4CC[C@@H](NC5CCOCC5)CC4)c3cc2C(C)C)cn2ncnc2c1C [Example 187, 5-(7,8-dimethyl-[1,2,4]triazolo[1,5-a]pyridin-6-yl)-6-isopropyl-1-((1s,4s)-4-((tetrahydro-2H-pyran-4-yl)amino)cyclohexyl)-1,3-dihydro-2H-benzo[d]imidazol-2-one]
IC50 (human TLR8): 0.8 nM
IC50 (human TLR7): 4.09 nM

COc1cc(-c2cc3[nH]c(=O)n([C@H]4CCCN(CC(N)=O)C4)c3cc2C(C)C)cn2ncnc12 [Example 220, (S)-2-(3-(6-isopropyl-5-(8-methoxy-[1,2,4]triazolo[1,5-a]pyridin-6-yl)-2-oxo-2,3-dihydro-1H-benzo[d]imidazol-1-yl)piperidin-1-yl)acetamide]
IC50 (human TLR8): 100 nM
IC50 (human TLR7): 244 nM

COc1cc(-c2cc3[nH]c(=O)n(C4CCC(N5CC(OC)C5)CC4)c3cc2C(C)C)cn2ncnc12 (stereo not shown) [Example 238, 6-isopropyl-5-(8-methoxy-[1,2,4]triazolo[1,5-a]pyridin-6-yl)-1-(4-(3-methoxyazetidin-1-yl)cyclohexyl)-1,3-dihydro-2H-benzo[d]imidazol-2-one]
IC50 (human TLR8): 0.26 nM
IC50 (human TLR7): 0.81 nM

COc1cc(-c2cc3[nH]c(=O)n([C@H]4CC[C@@H](NC5CCOCC5)CC4)c3cc2C(C)C)cn2ncnc12 [Example 193, 6-isopropyl-5-(8-methoxy-[1,2,4]triazolo[1,5-a]pyridin-6-yl)-1-((1s,4s)-4-((tetrahydro-2H-pyran-4-yl)amino)cyclohexyl)-1,3-dihydro-2H-benzo[d]imidazol-2-one]
IC50 (human TLR8): 0.48 nM
IC50 (human TLR7): 2.22 nM

CCc1cc2c(cc1-c1cc(OC)c3ncnn3c1)[nH]c(=O)n2[C@H]1CC[C@@H](NC2COC2)CC1 [Example 170, 6-ethyl-5-(8-methoxy-[1,2,4]triazolo[1,5-a]pyridin-6-yl)-1-((1s,4s)-4-(oxetan-3-ylamino)cyclohexyl)-1,3-dihydro-2H-benzo[d]imidazol-2-one]
IC50 (human TLR8): 1.27 nM
IC50 (human TLR7): 6.25 nM

CCc1cc2c(cc1-c1cc(OC)c3ncnn3c1)[nH]c(=O)n2[C@@H]1CCCN(C(C)C)C1 [Example 172, (R)-6-ethyl-1-(1-isopropylpiperidin-3-yl)-5-(8-methoxy-[1,2,4]triazolo[1,5-a]pyridin-6-yl)-1,3-dihydro-2H-benzo[d]imidazol-2-one]
IC50 (human TLR8): 1.75 nM
IC50 (human TLR7): 1.45 nM

CCc1cc2c(cc1-c1cc(OC)c3ncnn3c1)[nH]c(=O)n2[C@@H]1CCCN(C2CCOCC2)C1 [Example 184, (R)-6-ethyl-5-(8-methoxy-[1,2,4]triazolo[1,5-a]pyridin-6-yl)-1-(1-(tetrahydro-2H-pyran-4-yl)piperidin-3-yl)-1,3-dihydro-2H-benzo[d]imidazol-2-one]
IC50 (human TLR8): 14.3 nM
IC50 (human TLR7): 12.1 nM

CCc1cc2c(cc1-c1cc(OC)c3ncnn3c1)[nH]c(=O)n2[C@@H]1CCCN(CC2CCC2)C1 [Example 181, (R)-1-(1-(cyclobutylmethyl)piperidin-3-yl)-6-ethyl-5-(8-methoxy-[1,2,4]triazolo[1,5-a]pyridin-6-yl)-1,3-dihydro-2H-benzo[d]imidazol-2-one]
IC50 (human TLR8): 1.68 nM
IC50 (human TLR7): 0.81 nM
